Reference: patent US6992079B2, “Substituted 11-phenyl-dibenzazepine compounds useful for the treatment or prevention of diseases characterized by abnormal cell proliferation” (President Fellows of Harvard College, priority 1997, dated 2006)
Where two headings read alike, the source gives them in different places.

Key:
[1] = system: SU.86.86 pancreatic adenocarcinoma; experiment: Mouse xenograft tumor growth; assay type: in vivo, nude mice; details: SU.86.86 pancreatic adenocarcinoma mouse xenograft
[2] = system: panel of human cancer cells; experiment: In vitro screening, SRB, panel of 60 human cancer cell lines; assay type: cell-based
CCRF-CEM = experiment: In-Vitro Testing SRB panel: Leukemia; assay type: cell-based
MOLT-4 = experiment: In-Vitro Testing SRB panel: Leukemia; assay type: cell-based; details: MOLT-4
SR = experiment: In-Vitro Testing SRB panel: Leukemia; assay type: cell-based
A549/ATCC = assay type: cell-based
NCI-H460 = assay type: cell-based; details: NCI-H460
HCT-15 = experiment: In-Vitro Testing SRB panel: Colon Cancer; assay type: cell-based; details: HCT-15
SW-620 = experiment: In-Vitro Testing SRB panel: Colon Cancer; assay type: cell-based; details: SW-620
SK-MEL-2 = experiment: In-Vitro Testing SRB panel: Melanoma; assay type: cell-based; details: SK-MEL-2
SK-MEL-2B = experiment: In-Vitro Testing SRB panel: Melanoma; assay type: cell-based
UACC-62 = experiment: In-Vitro Testing SRB panel: Melanoma; assay type: cell-based; details: UACC-62
OVCAR-8 = experiment: In-Vitro Testing SRB panel: Ovarian Cancer; assay type: cell-based; details: OVCAR-8
SK-OV-3 = experiment: In-Vitro Testing SRB panel: Ovarian Cancer; assay type: cell-based; details: SK-OV-3
CARI-1 = experiment: In-Vitro Testing SRB panel: Renal Cancer; assay type: cell-based
[3] = In-Vitro Testing SRB panel: Renal Cancer; assay type: cell-based
MC-F7 = experiment: In-Vitro Testing SRB panel: Breast Cancer; assay type: cell-based
MDA-N = experiment: In-Vitro Testing SRB panel: Breast Cancer; assay type: cell-based
BT-549 = experiment: In-Vitro Testing SRB panel: Breast Cancer; assay type: cell-based; details: BT-549
[4] = Homo sapiens, read-out: LC50 (the source's name)

COc1cccc2c1C(c1ccccc1Cl)c1cc(Cl)ccc1N(C(=O)c1ccc([N+](=O)[O-])cc1)C2 (stereo not drawn) [Compound 31]
tumor growth [1]: showed inhibition of tumor growth | activity against the human cell panel [2]: exhibited activity against the human cell panel | TGI (CCRF-CEM): >1.00E−04 Molar | GI50 (CCRF-CEM; Homo sapiens): 1530 nM | CC50 (CCRF-CEM; [4]): > 100 µM | Percent Growth (CCRF-CEM; log10 conc -4 Molar): 2% | Percent Growth (CCRF-CEM; log10 conc -5 Molar): 21% | Percent Growth (CCRF-CEM; log10 conc -6 Molar): 56% | Percent Growth (CCRF-CEM; log10 conc -7 Molar): 94% | Percent Growth (CCRF-CEM; log10 conc -8 Molar): 111% | GI50 (MOLT-4; Homo sapiens): 336 nM | CC50 (MOLT-4; [4]): > 100 µM | TGI (MOLT-4): >1.00E−04 Molar | Percent Growth (MOLT-4; log10 conc -4 Molar): 6% | Percent Growth (MOLT-4; log10 conc -5 Molar): 14% | Percent Growth (MOLT-4; log10 conc -6 Molar): 24% | Percent Growth (MOLT-4; log10 conc -7 Molar): 79% | Percent Growth (MOLT-4; log10 conc -8 Molar): 95% | TGI (SR): >1.00E−04 Molar | GI50 (SR; Homo sapiens): 128 nM | CC50 (SR; [4]): > 100 µM | Percent Growth (SR; log10 conc -4 Molar): 4% | Percent Growth (SR; log10 conc -5 Molar): 7% | Percent Growth (SR; log10 conc -6 Molar): 13% | Percent Growth (SR; log10 conc -7 Molar): 54% | Percent Growth (SR; log10 conc -8 Molar): 94% | TGI (A549/ATCC; A549/ATCC): >1.00E−04 Molar | Percent Growth (A549/ATCC; A549/ATCC, log10 conc -4 Molar): 3% | Percent Growth (A549/ATCC; A549/ATCC, log10 conc -5 Molar): 11% | Percent Growth (A549/ATCC; A549/ATCC, log10 conc -6 Molar): 61% | Percent Growth (A549/ATCC; A549/ATCC, log10 conc -7 Molar): 98% | Percent Growth (A549/ATCC; A549/ATCC, log10 conc -8 Molar): 94% | GI50 (A549/ATCC; Homo sapiens, A549): 1670 nM | CC50 (A549/ATCC; Homo sapiens, A549/ATCC, read-out: LC50 (the source's name)): > 100 µM | GI50 (NCI-H460; Homo sapiens): 595 nM | CC50 (NCI-H460; [4]): > 100 µM | TGI (NCI-H460): 2.81E−05 Molar | Percent Growth (NCI-H460; log10 conc -4 Molar): −16% | Percent Growth (NCI-H460; log10 conc -5 Molar): 10% | Percent Growth (NCI-H460; log10 conc -6 Molar): 36% | Percent Growth (NCI-H460; log10 conc -7 Molar): 99% | Percent Growth (NCI-H460; log10 conc -8 Molar): 96% | TGI (HCT-15): >1.00E−04 Molar | Percent Growth (HCT-15; log10 conc -4 Molar): 15% | Percent Growth (HCT-15; log10 conc -5 Molar): 20% | Percent Growth (HCT-15; log10 conc -6 Molar): 34% | Percent Growth (HCT-15; log10 conc -7 Molar): 79% | Percent Growth (HCT-15; log10 conc -8 Molar): 96% | GI50 (HCT-15; Homo sapiens): 444 nM | CC50 (HCT-15; [4]): > 100 µM | GI50 (SW-620; Homo sapiens): 2000 nM | CC50 (SW-620; [4]): > 100 µM | TGI (SW-620): >1.00E−04 Molar | Percent Growth (SW-620; log10 conc -4 Molar): 27% | Percent Growth (SW-620; log10 conc -5 Molar): 34% | Percent Growth (SW-620; log10 conc -6 Molar): 57% | Percent Growth (SW-620; log10 conc -7 Molar): 94% | Percent Growth (SW-620; log10 conc -8 Molar): 105% | GI50 (SK-MEL-2; Homo sapiens): 79.3 µM | CC50 (SK-MEL-2; [4]): > 100 µM | TGI (SK-MEL-2): >1.00E−04 Molar | Percent Growth (SK-MEL-2; log10 conc -4 Molar): 47% | Percent Growth (SK-MEL-2; log10 conc -5 Molar): 78% | Percent Growth (SK-MEL-2; log10 conc -6 Molar): 102% | Percent Growth (SK-MEL-2; log10 conc -7 Molar): 99% | Percent Growth (SK-MEL-2; log10 conc -8 Molar): 101% | GI50 (SK-MEL-2B; Homo sapiens): 7.47 µM | CC50 (SK-MEL-2B; Homo sapiens, SK-MEL-2B, read-out: LC50 (the source's name)): > 100 µM | TGI (SK-MEL-2B; SK-MEL-2B): >1.00E−04 Molar | Percent Growth (SK-MEL-2B; SK-MEL-2B, log10 conc -4 Molar): 31% | Percent Growth (SK-MEL-2B; SK-MEL-2B, log10 conc -5 Molar): 48% | Percent Growth (SK-MEL-2B; SK-MEL-2B, log10 conc -6 Molar): 62% | Percent Growth (SK-MEL-2B; SK-MEL-2B, log10 conc -7 Molar): 87% | Percent Growth (SK-MEL-2B; SK-MEL-2B, log10 conc -8 Molar): 92% | GI50 (UACC-62; Homo sapiens): 430 nM | CC50 (UACC-62; [4]): > 100 µM | TGI (UACC-62): >1.00E−04 Molar | Percent Growth (UACC-62; log10 conc -4 Molar): 14% | Percent Growth (UACC-62; log10 conc -5 Molar): 32% | Percent Growth (UACC-62; log10 conc -6 Molar): 36% | Percent Growth (UACC-62; log10 conc -7 Molar): 74% | Percent Growth (UACC-62; log10 conc -8 Molar): 90% | GI50 (OVCAR-8; Homo sapiens): 5.3 µM | CC50 (OVCAR-8; [4]): > 100 µM | TGI (OVCAR-8): >1.00E−04 Molar | Percent Growth (OVCAR-8; log10 conc -4 Molar): 29% | Percent Growth (OVCAR-8; log10 conc -5 Molar): 38% | Percent Growth (OVCAR-8; log10 conc -6 Molar): 82% | Percent Growth (OVCAR-8; log10 conc -7 Molar): 94% | Percent Growth (OVCAR-8; log10 conc -8 Molar): 99% | GI50 (SK-OV-3; Homo sapiens): > 100 µM | CC50 (SK-OV-3; [4]): > 100 µM | TGI (SK-OV-3): >1.00E−04 Molar | Percent Growth (SK-OV-3; log10 conc -4 Molar): 63% | Percent Growth (SK-OV-3; log10 conc -5 Molar): 85% | Percent Growth (SK-OV-3; log10 conc -6 Molar): 88% | Percent Growth (SK-OV-3; log10 conc -7 Molar): 102% | Percent Growth (SK-OV-3; log10 conc -8 Molar): 97% | TGI (CARI-1; CARI-1): >1.00E−04 Molar | Percent Growth (CARI-1; CARI-1, log10 conc -4 Molar): 4% | Percent Growth (CARI-1; CARI-1, log10 conc -5 Molar): 37% | Percent Growth (CARI-1; CARI-1, log10 conc -6 Molar): 48% | Percent Growth (CARI-1; CARI-1, log10 conc -7 Molar): 80% | Percent Growth (CARI-1; CARI-1, log10 conc -8 Molar): 103% | GI50 (CARI-1; Homo sapiens): 888 nM | CC50 (CARI-1; Homo sapiens, CARI-1, read-out: LC50 (the source's name)): > 100 µM | TGI ([3]; DO-31): >1.00E−04 Molar | Percent Growth ([3]; DO-31, log10 conc -4 Molar): 1% | Percent Growth ([3]; DO-31, log10 conc -5 Molar): 19% | Percent Growth ([3]; DO-31, log10 conc -6 Molar): 61% | Percent Growth ([3]; DO-31, log10 conc -7 Molar): 104% | Percent Growth ([3]; DO-31, log10 conc -8 Molar): 94% | GI50 ([3]; Homo sapiens): 1820 nM | CC50 ([3]; Homo sapiens, DO-31, read-out: LC50 (the source's name)): > 100 µM | GI50 (MC-F7; Homo sapiens, MCF7): 821 nM | CC50 (MC-F7; Homo sapiens, MCF7, MC-F7, read-out: LC50 (the source's name)): > 100 µM | TGI (MC-F7; MC-F7): >1.00E−04 Molar | Percent Growth (MC-F7; MC-F7, log10 conc -4 Molar): 5% | Percent Growth (MC-F7; MC-F7, log10 conc -5 Molar): 19% | Percent Growth (MC-F7; MC-F7, log10 conc -6 Molar): 46% | Percent Growth (MC-F7; MC-F7, log10 conc -7 Molar): 93% | Percent Growth (MC-F7; MC-F7, log10 conc -8 Molar): 97% | TGI (MDA-N): >1.00E−04 Molar | GI50 (MDA-N; Homo sapiens): 1970 nM | CC50 (MDA-N; [4]): > 100 µM | Percent Growth (MDA-N; log10 conc -4 Molar): 22% | Percent Growth (MDA-N; log10 conc -5 Molar): 33% | Percent Growth (MDA-N; log10 conc -6 Molar): 57% | Percent Growth (MDA-N; log10 conc -7 Molar): 90% | Percent Growth (MDA-N; log10 conc -8 Molar): 96% | TGI (BT-549): >1.00E−04 Molar | Percent Growth (BT-549; log10 conc -4 Molar): 11% | Percent Growth (BT-549; log10 conc -5 Molar): 43% | Percent Growth (BT-549; log10 conc -6 Molar): 59% | Percent Growth (BT-549; log10 conc -7 Molar): 94% | Percent Growth (BT-549; log10 conc -8 Molar): 92% | GI50 (BT-549; Homo sapiens): 3.83 µM | CC50 (BT-549; [4]): > 100 µM
